Columns and labels:
Type in all cases: in vivo
Kochia (Kochia scoparia) [1] = assay: Test A preemergence; conditions: Bassia scoparia, pre-emergence, 240 h; for pest or weed control at 125 g/ha: 125 g ai/ha, Preemergence, visual injury rating after approximately 10 d, read-out: Kochia plant response rating (0 to 100 scale, 0 is no effect, 100 is complete control); for pest or weed control at 500 g/ha: 500 g ai/ha, preemergence, visual injury rating about 10 d after treatment, 0 to 100 scale (0 no effect, 100 complete control), read-out: Kochia plant response rating
Method in brief: (§1)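 Ratings of 0 (no effect) to 100 (complete control) come from visual comparison with untreated controls roughly 10 d after treatment. Test chemicals, formulated in a non-phytotoxic solvent mixture with surfactant, were applied either as a preemergence directed soil spray on seeded soil or postemergence to one- to two-leaf plants 2 to 10 cm tall.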

[2] = test system: barnyardgrass (Echinochloa crus-galli); assay: Test A preemergence; conditions: Echinochloa crus-galli, pre-emergence, 240 h; for pest or weed control at 125 g/ha: 125 g ai/ha, Preemergence, visual injury rating after approximately 10 d, read-out: Barnyardgrass plant response rating (0 to 100 scale, 0 is no effect, 100 is complete control); for pest or weed control at 500 g/ha: 500 g ai/ha, preemergence, visual injury rating about 10 d after treatment, 0 to 100 scale (0 no effect, 100 complete control), read-out: Barnyardgrass plant response rating
Method in brief: as §1

[3] = test system: giant foxtail (Setaria faberii); assay: Test A preemergence; conditions: Setaria faberi, pre-emergence, 240 h; for pest or weed control at 125 g/ha: 125 g ai/ha, Preemergence, visual injury rating after approximately 10 d, read-out: Foxtail, Giant plant response rating (0 to 100 scale, 0 is no effect, 100 is complete control); for pest or weed control at 500 g/ha: 500 g ai/ha, preemergence, visual injury rating about 10 d after treatment, 0 to 100 scale (0 no effect, 100 complete control), read-out: Foxtail, Giant plant response rating
Method in brief: as §1

[4] = test system: pigweed (Amaranthus retroflexus); assay: Test A preemergence; conditions: Amaranthus retroflexus, pre-emergence, 240 h; for pest or weed control at 125 g/ha: 125 g ai/ha, Preemergence, visual injury rating after approximately 10 d, read-out: Pigweed plant response rating (0 to 100 scale, 0 is no effect, 100 is complete control); for pest or weed control at 500 g/ha: 500 g ai/ha, preemergence, visual injury rating about 10 d after treatment, 0 to 100 scale (0 no effect, 100 complete control), read-out: Pigweed plant response rating
[5] = test system: ragweed (common ragweed, Ambrosia elatior); assay: Test A preemergence; conditions: Ambrosia artemisiifolia, pre-emergence, 240 h; for pest or weed control at 125 g/ha: 125 g ai/ha, Preemergence, visual injury rating after approximately 10 d, read-out: Ragweed plant response rating (0 to 100 scale, 0 is no effect, 100 is complete control); for pest or weed control at 500 g/ha: 500 g ai/ha, preemergence, visual injury rating about 10 d after treatment, 0 to 100 scale (0 no effect, 100 complete control), read-out: Ragweed plant response rating
Method in brief: as §1

[6] = test system: ryegrass, Italian (Italian ryegrass, Lolium multiflorum); assay: Test A preemergence; conditions: Lolium multiflorum, pre-emergence, 240 h; for pest or weed control at 125 g/ha: 125 g ai/ha, Preemergence, visual injury rating after approximately 10 d, read-out: Ryegrass, Italian plant response rating (0 to 100 scale, 0 is no effect, 100 is complete control); for pest or weed control at 500 g/ha: 500 g ai/ha, preemergence, visual injury rating about 10 d after treatment, 0 to 100 scale (0 no effect, 100 complete control), read-out: Ryegrass, Italian plant response rating
Method in brief: as §1

[7] = test system: Galium (catchweed bedstraw, Galium aparine); assay: Test A postemergence; conditions: Galium, post-emergence, 240 h, postemergence, approx. 10 d; for pest or weed control at 125 g/ha: 125 g ai/ha, visual injury on 0 to 100 scale (0 no effect, 100 complete control), read-out: Galium plant response rating; for pest or weed control at 500 g/ha: 500 g ai/ha, visual injury, 0 to 100 scale (0 no effect, 100 complete control), read-out: Plant response rating, Galium
Method in brief: as §1

Kochia (Kochia scoparia) [8] = assay: Test A postemergence; conditions: Bassia scoparia, post-emergence, 240 h, postemergence, approx. 10 d; for pest or weed control at 125 g/ha: 125 g ai/ha, visual injury on 0 to 100 scale (0 no effect, 100 complete control), read-out: Kochia plant response rating; for pest or weed control at 500 g/ha: 500 g ai/ha, visual injury, 0 to 100 scale (0 no effect, 100 complete control), read-out: Plant response rating, Kochia
Method in brief: as §1

[9] = test system: barnyardgrass (Echinochloa crus-galli); assay: Test A postemergence; conditions: Echinochloa crus-galli, post-emergence, 240 h, read-out: Plant response rating, Barnyardgrass; for pest or weed control at 125 g/ha: 125 g ai/ha, Postemergence, visual injury after approximately 10 d, 0 to 100 scale where 0 is no effect and 100 is complete control; for pest or weed control at 500 g/ha: 500 g ai/ha, postemergence, visual injury, 0 to 100 scale (0 no effect, 100 complete control), approx. 10 d
Method in brief: as §1

corn (Zea mays) = assay: Test A postemergence; conditions: Zea mays, post-emergence, 240 h; for Corn plant response rating (crop injury, 0 = no effect, 100 = complete kill) at 125 g/ha: 125 g ai/ha, Postemergence, visual injury after approximately 10 d, 0 to 100 scale where 0 is no effect and 100 is complete control; for Corn plant response rating (crop injury, 0 = no effect, 100 = complete kill) at 500 g/ha: 500 g ai/ha, postemergence, visual injury, 0 to 100 scale (0 no effect, 100 complete control), approx. 10 d
Method in brief: as §1

[10] = test system: pigweed (Amaranthus retroflexus); assay: Test A postemergence; conditions: Amaranthus retroflexus, post-emergence, 240 h, postemergence, approx. 10 d; for pest or weed control at 125 g/ha: 125 g ai/ha, visual injury on 0 to 100 scale (0 no effect, 100 complete control), read-out: Pigweed plant response rating; for pest or weed control at 500 g/ha: 500 g ai/ha, visual injury, 0 to 100 scale (0 no effect, 100 complete control), read-out: Plant response rating, Pigweed
Method in brief: as §1

[11] = test system: barnyardgrass (Echinochloa crus-galli); assay: Test B flooded paddy test; conditions: Echinochloa crus-galli, 250 g ai/ha, Flood; 0 to 100 scale where 0 is no effect and 100 is complete control; read-out: Barnyardgrass plant response rating
Method in brief: (§2)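 Visual ratings (0 none to 100 complete control) are relative to untreated plants, taken 13–15 d after treatment in a greenhouse. Test material went straight into floodwater standing 3 cm above the soil, kept constant, on plants at the 2-leaf stage.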

[12] = test system: ducksalad (Heteranthera limosa); assay: Test B flooded paddy test; conditions: Heteranthera limosa, 250 g ai/ha, Flood; 0 to 100 scale where 0 is no effect and 100 is complete control; read-out: Ducksalad plant response rating
Method in brief: as §2

rice (Oryra sativa) = assay: Test B flooded paddy test; conditions: Oryza sativa, 250 g ai/ha, Flood; 0 to 100 scale where 0 is no effect and 100 is complete control; read-out: Rice plant response rating
Method in brief: as §2

[13] = test system: sedge, umbrella (small-flower umbrella sedge, Cyperus difformis); assay: Test B flooded paddy test; conditions: Cyperus difformis, 250 g ai/ha, Flood; 0 to 100 scale where 0 is no effect and 100 is complete control; read-out: Sedge, Umbrella plant response rating
Method in brief: as §2

Compound	pest or weed control at 125 g/ha (Kochia (Kochia scoparia) [1])	pest or weed control at 500 g/ha (Kochia (Kochia scoparia) [1])	pest or weed control at 125 g/ha [2]	pest or weed control at 500 g/ha [2]	pest or weed control at 125 g/ha [3]	pest or weed control at 500 g/ha [3]	pest or weed control at 125 g/ha [4]	pest or weed control at 500 g/ha [4]	pest or weed control at 500 g/ha [5]	pest or weed control at 500 g/ha [6]	pest or weed control at 125 g/ha [7]	pest or weed control at 500 g/ha [7]	pest or weed control at 125 g/ha (Kochia (Kochia scoparia) [8])	pest or weed control at 500 g/ha (Kochia (Kochia scoparia) [8])	pest or weed control at 125 g/ha [9]	pest or weed control at 500 g/ha [9]	Corn plant response rating (crop injury, 0 = no effect, 100 = complete kill) at 125 g/ha (corn (Zea mays))	Corn plant response rating (crop injury, 0 = no effect, 100 = complete kill) at 500 g/ha (corn (Zea mays))	pest or weed control at 125 g/ha [10]	pest or weed control at 250 g/ha [11]	also measured
O=C(Nc1ccccc1F)[C@H]1C(=O)N(C2CC2)CC[C@@H]1c1ccccc1 [Compound 1031]	0%	0%	0%	0%	0%	0%	0%	0%	0%	0%	0%	0%	0%	0%	0%	0%	0%	0%	0%	0%	pest or weed control at 125 g/ha [5]: 0%; pest or weed control at 125 g/ha [6]: 0%; pest or weed control at 500 g/ha [10]: 0%; pest or weed control at 250 g/ha [12]: 0%; pest or weed control at 250 g/ha (rice (Oryra sativa)): 0%; pest or weed control at 250 g/ha [13]: 0%
Cc1ccc([C@H]2CNC(=O)[C@@H]2C(=O)Nc2ccccc2F)cc1C [Compound 1033]	0%	60%	90%	90%	70%	90%	0%	0%	10%	50%	40%	60%	0%	0%	90%	90%	0%	40%	0%	50%	pest or weed control at 125 g/ha [5]: 0%; pest or weed control at 125 g/ha [6]: 0%; pest or weed control at 500 g/ha [10]: 0%; pest or weed control at 250 g/ha [12]: 100%; pest or weed control at 250 g/ha (rice (Oryra sativa)): 0%; pest or weed control at 250 g/ha [13]: 0%
Cc1ccc([C@H]2CNC(=O)[C@@H]2C(=O)Nc2cccc(F)c2C)cc1C [Compound 1035]	0%	50%	90%	90%	90%	90%	0%	0%	70%	70%	20%	50%	0%	20%	90%	90%	50%	60%	0%	50%	pest or weed control at 125 g/ha [5]: 20%; pest or weed control at 500 g/ha [10]: 0%; pest or weed control at 250 g/ha [12]: 100%; pest or weed control at 250 g/ha (rice (Oryra sativa)): 0%; pest or weed control at 250 g/ha [13]: 0%
Cc1cc([C@H]2CNC(=O)[C@@H]2C(=O)Nc2cccc(F)c2F)ccc1C(F)(F)F [Compound 1040]	50%	80%	90%	90%	90%	90%	30%	40%	80%	50%	50%	70%	60%	70%	80%	90%	60%	80%	40%	60%	pest or weed control at 125 g/ha [6]: 50%; pest or weed control at 250 g/ha [12]: 75%; pest or weed control at 250 g/ha (rice (Oryra sativa)): 0%; pest or weed control at 250 g/ha [13]: 0%

Reference: patent US12077503B2, “Substituted cyclic amides and their use as herbicides” (FMC CORPORATION, priority 2015, dated 2024)
